{
  "source": "ChEMBL document CHEMBL4364273",
  "about": "“Discovery of SHR1653, a Highly Potent and Selective OTR Antagonist with Improved Blood-Brain Barrier Penetration” (ACS Med Chem Lett, 2019)",
  "key": {"[1]": {"experiment": "Half-life in nude mouse at 4 mg/kg, po measured for 24 hrs by LC-MS/MS analysis", "assay_type": "ADME, organism-based", "settings": "in vivo"}, "Rattus norvegicus": {"tested_on": "Rattus norvegicus", "experiment": "Anti-premature ejaculation activity in anesthetized oxytocin-induced uterine contraction Sprague-Dawley rat model assessed as decrease in intraluminal uterine pressure administered orally for 20 mins and 1 hr later treated with oxytocin and measured for 15 to 30 mins relative to control", "assay_type": "functional"}, "[2]": {"experiment": "Tmax in Sprague-Dawley rat at 30 mg/kg, po measured for 24 hrs by LC-MS/MS analysis", "assay_type": "ADME, organism-based", "settings": "in vivo"}, "[3]": {"experiment": "Cmax in Sprague-Dawley rat at 30 mg/kg, po measured for 24 hrs by LC-MS/MS analysis", "assay_type": "ADME, organism-based", "design": "dose 30 mg/kg, route oral", "settings": "in vivo"}, "[4]": {"experiment": "Hepatic clearance in rat liver microsomes by LC-MS/MS analysis", "assay_type": "ADME, Microsome"}, "[5]": {"experiment": "Acute toxicity in rat assessed as increase in urinary output at 900 mg/kg measured for 7 days", "assay_type": "organism-based", "settings": "in vivo, 168 h"}, "[6]": {"experiment": "Acute toxicity in rat assessed as effect on hematological parameters up to 300 mg/kg measured for 7 days", "assay_type": "organism-based", "settings": "in vivo, 168 h"}, "[7]": {"experiment": "Tmax in nude mouse at 4 mg/kg, po measured for 24 hrs by LC-MS/MS analysis", "assay_type": "ADME, organism-based", "settings": "in vivo"}, "[8]": {"experiment": "Clearance in Sprague-Dawley rat at 1 mg/kg, iv measured for 24 hrs by LC-MS/MS analysis", "assay_type": "ADME, organism-based", "settings": "in vivo"}, "Homo sapiens": {"species": "Homo sapiens", "experiment": "Selectivity ratio of IC50 for human vasopressin V2 receptor expressed in HEK293 cells to IC50 for human OTR expressed in HEK293 cells", "assay_type": "cell-based"}, "Cytochrome P450 1A2": {"biological_target": "T1, Cytochrome P450 1A2 (Homo sapiens, UniProt P05177)", "T1 sequence (P05177 whole entry)": "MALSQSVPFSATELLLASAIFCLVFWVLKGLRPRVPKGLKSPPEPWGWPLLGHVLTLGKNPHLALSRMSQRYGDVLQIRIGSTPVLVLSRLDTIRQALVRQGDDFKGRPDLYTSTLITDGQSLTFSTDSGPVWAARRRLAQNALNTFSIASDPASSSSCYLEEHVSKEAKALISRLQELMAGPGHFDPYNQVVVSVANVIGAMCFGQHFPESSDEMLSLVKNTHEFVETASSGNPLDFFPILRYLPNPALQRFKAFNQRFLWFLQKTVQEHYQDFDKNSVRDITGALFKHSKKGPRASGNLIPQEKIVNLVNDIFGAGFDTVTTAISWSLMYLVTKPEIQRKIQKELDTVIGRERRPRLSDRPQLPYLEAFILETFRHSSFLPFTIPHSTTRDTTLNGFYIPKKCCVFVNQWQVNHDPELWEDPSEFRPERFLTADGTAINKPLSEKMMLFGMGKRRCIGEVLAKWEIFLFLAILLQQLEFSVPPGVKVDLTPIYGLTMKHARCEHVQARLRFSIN", "experiment": "Inhibition of human recombinant CYP1A2", "assay_type": "ADME"}, "[9]": {"experiment": "Cmax in Beagle dog at 20 mg/kg, po measured for 24 hrs by LC-MS/MS analysis", "assay_type": "ADME, organism-based, Canis lupus familiaris", "design": "dose 20 mg/kg, route oral", "settings": "in vivo"}, "[10]": {"experiment": "Cmax in Sprague-Dawley rat at 2 mg/kg, po measured for 24 hrs by LC-MS/MS analysis", "assay_type": "ADME, organism-based", "design": "dose 2 mg/kg, route oral", "settings": "in vivo"}, "Cytochrome P450 2C19": {"biological_target": "Cytochrome P450 2C19 (Homo sapiens, UniProt P33261)", "sequence (P33261 whole entry)": "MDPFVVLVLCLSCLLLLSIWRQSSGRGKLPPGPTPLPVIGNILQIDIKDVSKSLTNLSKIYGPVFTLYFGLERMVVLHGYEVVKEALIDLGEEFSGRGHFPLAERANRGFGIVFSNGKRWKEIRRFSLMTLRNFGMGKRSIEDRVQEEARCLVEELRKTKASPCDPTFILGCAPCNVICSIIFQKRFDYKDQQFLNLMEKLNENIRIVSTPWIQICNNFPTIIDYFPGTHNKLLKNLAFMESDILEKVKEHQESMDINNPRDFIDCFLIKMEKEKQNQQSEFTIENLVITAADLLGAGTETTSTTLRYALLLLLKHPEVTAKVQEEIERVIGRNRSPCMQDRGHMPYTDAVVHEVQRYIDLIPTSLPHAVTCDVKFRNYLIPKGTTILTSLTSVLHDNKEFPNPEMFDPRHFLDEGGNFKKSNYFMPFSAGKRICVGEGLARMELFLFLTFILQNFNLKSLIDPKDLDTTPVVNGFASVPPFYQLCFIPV", "experiment": "Inhibition of human recombinant CYP2C19", "assay_type": "ADME"}, "[11]": {"experiment": "Clearance in Beagle dog at 1 mg/kg, iv measured for 24 hrs by LC-MS/MS analysis", "assay_type": "ADME, organism-based, Canis lupus familiaris", "settings": "in vivo"}, "[12]": {"experiment": "Safety index, ratio of NOAEL in rat to EC50 for inhibition of oxytocin-induced contractile response in po dosed Sprague-Dawley rat", "assay_type": "toxicity, organism-based", "settings": "in vivo"}, "[13]": {"experiment": "AUC (0 to 24 hrs) in Sprague-Dawley rat at 2 mg/kg, po by LC-MS/MS analysis", "assay_type": "ADME, organism-based", "design": "time < 24 hr, dose 2 mg/kg, route oral", "settings": "in vivo"}, "Cytochrome P450 2D6": {"biological_target": "Cytochrome P450 2D6 (Homo sapiens, UniProt P10635)", "sequence (P10635 whole entry)": "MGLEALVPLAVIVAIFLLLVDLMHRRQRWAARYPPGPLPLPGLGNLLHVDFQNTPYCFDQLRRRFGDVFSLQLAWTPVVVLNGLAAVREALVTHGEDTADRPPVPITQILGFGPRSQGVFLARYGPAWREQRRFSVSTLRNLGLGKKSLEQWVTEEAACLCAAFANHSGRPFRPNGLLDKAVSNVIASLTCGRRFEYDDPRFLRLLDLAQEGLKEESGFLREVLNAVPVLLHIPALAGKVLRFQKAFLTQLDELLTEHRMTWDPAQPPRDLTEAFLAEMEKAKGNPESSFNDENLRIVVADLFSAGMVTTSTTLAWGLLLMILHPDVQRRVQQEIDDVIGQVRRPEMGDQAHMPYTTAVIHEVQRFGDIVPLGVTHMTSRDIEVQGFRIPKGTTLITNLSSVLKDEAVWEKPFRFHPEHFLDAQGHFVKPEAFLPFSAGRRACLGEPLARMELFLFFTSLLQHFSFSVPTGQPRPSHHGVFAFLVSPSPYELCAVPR", "experiment": "Inhibition of human recombinant CYP2D6", "assay_type": "ADME"}},
  "data": [
    {"smiles": "COCc1nnc(N2C[C@@H]3C[C@]3(c3ccc(F)cc3Cl)C2)n1-c1ccc(OC)nc1", "values": [
      {"measurement": "half-life", "setting": "[1]", "value": 114, "unit": "min"},
      {"measurement": "ED", "setting": "Rattus norvegicus", "value": 30, "unit": "mg/kg"},
      {"measurement": "inhibition", "setting": "Rattus norvegicus", "value": "Dose-dependent effect"},
      {"measurement": "Tmax", "setting": "[2]", "value": 37.8, "unit": "min"},
      {"measurement": "Cmax", "setting": "[3]", "value": 3300, "unit": "ng/mL"},
      {"measurement": "CLhep predicted", "setting": "[4]", "value": 54.9, "unit": "mL/min/kg"},
      {"measurement": "Activity", "setting": "[5]", "value": "Toxic"},
      {"measurement": "Activity", "setting": "[6]", "value": "Non-Toxic"},
      {"measurement": "Tmax", "setting": "[7]", "value": 30, "unit": "min"},
      {"measurement": "clearance", "setting": "[8]", "value": 16.1, "unit": "mL/min/kg"},
      {"measurement": "Ratio IC50", "setting": "Homo sapiens", "value": 2170},
      {"measurement": "IC50", "setting": "Cytochrome P450 1A2", "value": "> 30", "unit": "µM"},
      {"measurement": "Cmax", "setting": "[9]", "value": 13500, "unit": "ng/mL"},
      {"measurement": "Cmax", "setting": "[10]", "value": 350, "unit": "ng/mL"},
      {"measurement": "IC50", "setting": "Cytochrome P450 2C19", "value": 11, "unit": "µM"},
      {"measurement": "clearance", "setting": "[11]", "value": 7.2, "unit": "mL/min/kg"},
      {"measurement": "selectivity ratio", "setting": "[12]", "value": 10},
      {"measurement": "AUC(0-t) at 24 h", "setting": "[13]", "value": 1680, "unit": "ng·h/mL"},
      {"measurement": "IC50", "setting": "Cytochrome P450 2D6", "value": "> 30", "unit": "µM"}
    ]}
  ]
}
